Data: USRE50663E1, “Heterocycle derivatives as pesticides” (Bayer Aktiengesellschaft, priority 2017, dated 2025)

Experiments:
[1] = test system: green peach aphid (Myzus persicae); test: Comparative Myzus persicae drench test (MYZUPE D); type: in vivo; details: soil, 240 h, 10 dat, read-out: % efficacy
Method: (§1) Solvent: 7 parts by weight of dimethylformamide
(§2) Emulsifier: 2 parts by weight of alkylaryl polyglycol ether
(§3) To produce a suitable active ingredient formulation, 1 part by weight of active ingredient is mixed with the specified amounts of solvent and emulsifier, and the concentrate is diluted with water to the desired concentration, it being necessary to take into account the volume of soil which is drenched. It should be ensured that a concentration of 40 ppm of emulsifier in the soil is not exceeded. To produce further test concentrations, water is used for dilution.
Savoy cabbage (Brassica oleracea) in pots with soil and infested by all stages of the green peach aphid (Myzus persicae) is watered with an active ingredient formulation of the desired concentration.
After the desired period of time, the efficacy in % is determined. 100% means that all the aphids have been killed; 0% means that no aphids have been killed.

[2] = logP by HPLC on reversed-phase column (C18), acidic range; type: physicochemical; details: reversed-phase HPLC column (C18), formic acid in water/acetonitrile
Method: The logP values were determined according to EEC Directive 79/831 Annex V.A8 by HPLC (high-performance liquid chromatography) on a reversed-phase column (C18) using the following methods:
Calibration was carried out using a homologous series of straight-chain alkan-2-ones (having 3 to 16 carbon atoms) with known logP values. The values between successive alkanones are determined by linear regression.

[3] = test system: caterpillars of the fall armyworm (Spodoptera frugiperda); test: Spodoptera frugiperda spray test; type: in vivo; details: foliar, 168 h, 100 g/ha, after 7 days, maize leaf discs, read-out: efficacy
In short: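 Maize leaf discs sprayed with compound formulated in acetone/dimethylformamide and diluted in water with 1000 ppm alkylaryl polyglycol ether emulsifier, then infested with fall armyworm caterpillars once dry. Efficacy read after 7 days as % caterpillars killed (100% = all dead, 0% = none).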

[4] = test system: green peach aphids (Myzus persicae); test: Myzus persicae oral test; type: in vivo; details: 120 h, 4 ppm, after 5 days, read-out: efficacy
Method: Solvent: 100 parts by weight of acetone
To produce a suitable active compound formulation, 1 part by weight of active compound is dissolved with the stated parts by weight of solvent and made up to the desired concentration with water.
50 μl of the active compound formulation are transferred into microtitre plates and made up to a final volume of 200 μl with 150 μl of IPL41 insect medium (33%+15% sugar). Subsequently, the plates are sealed with parafilm, which a mixed population of green peach aphids (Myzus persicae) within a second microtitre plate is able to puncture and imbibe the solution.
After 5 days, the efficacy in % is determined. 100% means that all the aphids have been killed; 0% means that no aphids have been killed.

[5] = test system: larvae of the mustard beetle (Phaedon cochleariae); test: Comparative Phaedon cochleariae spray test (PHAECO); type: in vivo; details: 168 h, 7 dat, read-out: % efficacy
Method: (§4) Solvent: 14 parts by weight of dimethylformamide
(§5) Emulsifier: alkylaryl polyglycol ether
(§6) To produce a suitable active compound formulation, 1 part by weight of active compound is dissolved with the specified parts by weight of solvent and made up to the desired concentration with water containing an emulsifier concentration of 1000 ppm. To produce further test concentrations, the formulation is diluted with emulsifier-containing water. If the addition of ammonium salts or/and penetrants is required, these are each added in a concentration of 1000 ppm to the formulation solution.
Cabbage leaves (Brassica oleracea) are sprayed with an active ingredient formulation of the desired concentration and populated with larvae of the mustard beetle (Phaedon cochleariae).
After the desired time, the kill in % is determined. 100% means that all the beetle larvae have been killed; 0% means that no beetle larvae have been killed.

[6] = test system: caterpillars of the armyworm (Spodoptera frugiperda); test: Comparative Spodoptera frugiperda spray test (SPODFR); type: in vivo; details: 168 h, 7 dat, read-out: % efficacy
Method: as §4, §5, §6
Cotton leaves (Gossypium hirsutum) are sprayed with an active ingredient formulation of the desired concentration and populated with caterpillars of the armyworm (Spodoptera frugiperda).
After the desired time, the kill in % is determined. 100% means that all caterpillars have been killed; 0% means that none of the caterpillars have been killed.

[7] = test system: L2 larvae of the banded cucumber beetle (Diabrotica balteata); test: Comparative Diabrotica balteata drench test (DIABBA D); type: in vivo; details: soil, 192 h, 8 dat, read-out: % efficacy
Method: as §1, §2, §3
In each case 5 maize corns (Zea mays) are sown into pots filled with earth, and the next day the pots are watered with the active compound preparation of the desired concentration. After one day, about 25 L2 larvae of the banded cucumber beetle (Diabrotica balteata) are added.
After 8 days, the efficacy in % is determined. 100% means that all 5 plants have germinated and grown; 0% means that none of the plants has emerged.

[8] = test system: southern root-knot nematode (Meloidogyne incognita); test: Meloidogyne incognita test; type: in vivo; details: 20 ppm, after 14 days, lettuce
Method: Solvent: 125.0 parts by weight of acetone
To produce a suitable active compound formulation, 1 part by weight of active compound is mixed with the stated amount of solvent and the concentrate is diluted to the desired concentration with water.
Vessels are filled with sand, active compound solution, an egg/larvae suspension of the southern root-knot nematode (Meloidogyne incognita) and lettuce seeds. The lettuce seeds germinate and the plants develop. The galls develop on the roots.
After 14 days, the nematicidal efficacy in % is determined by the formation of galls. 100% means that no galls were found; 0% means that the number of galls on the treated plants corresponds to the untreated control.

[9] = test system: adult dog ticks (Rhipicephalus sanguineus); test: Rhipicephalus sanguineus in vitro contact test with adult brown dog ticks; type: in vivo; details: application rate 5 μg/cm^2, after 48 h, dead or moribund ticks
Method: For the coating of the test tubes, 9 mg of active compound are first dissolved in 1 ml of acetone p.a. and then diluted to the desired concentration with acetone p.a. 250 μl of the solution are distributed homogeneously on the inner walls and the base of a 25 ml glass tube by turning and rocking on an orbital shaker (rocking rotation at 30 rpm for 2 h). With 900 ppm of active compound solution and internal surface area 44.7 cm^2, given homogeneous distribution, an area-based dose of 5 μg/cm^2 is achieved.
After the solvent has evaporated off, the tubes are populated with 5-10 adult dog ticks (Rhipicephalus sanguineus), sealed with a perforated plastic lid and incubated in a horizontal position in the dark at room temperature and ambient humidity. After 48 h, efficacy is determined. To this end, the ticks are knocked to the base of the tube and incubated on a hotplate at 45-50° C. for not more than 5 min. Ticks which remain motionless on the base or move in such an uncoordinated manner that they are unable to deliberately avoid the heat by climbing upwards are considered to be dead or moribund.
An efficacy of 100% means that all the ticks were dead or moribund. 0% efficacy means that none of the ticks were harmed.

chromatographic logP [2]: 2.88
Compound: CCS(=O)(=O)c1c(-c2nc3cc(C(F)(F)F)cnc3n2C)nc2cc(C3(C#N)CC3)ccn12 [Example I-11, 1-{3-(Ethylsulfonyl)-2-[3-methyl-6-(trifluoromethyl)-3H-imidazo[4,5-b]pyridin-2-yl]imidazo[1,2-a]pyridin-7-yl}cyclopropanecarbonitrile]
Emax at 0.8 ppm [1]: 95% | pest or weed control at 100 g/ha [3]: 100% | pest or weed control at 4 ppm [4]: 90% | Emax at 0.8 ppm ([5]; 0.8 ppm): 60% | Emax at 4 ppm ([5]; 4 ppm): 100% | Emax at 0.16 ppm [6]: 100% | Emax at 0.8 ppm ([7]; 0.8 ppm): 80% | Emax at 4 ppm ([7]; 4 ppm): 100% | nematicidal efficacy (formation of galls) [8]: 100% | efficacy [9]: 100%
